Activity calls are given as the source filed them. The calls are words filed in the database; no cut-off is given here.
How the values were obtained:
[1] = Genotoxicity in Salmonella typhimurium TA98 assessed as number of revertant at 2.5 ug by AMES test (reference value: 8 to 8.3); assay type: toxicity, Salmonella enterica subsp. enterica serovar Typhimurium; details: in vivo; dose 2.5 µg
[2] = Genotoxicity in Salmonella typhimurium TA98 assessed as mutagenic index at 2.5 ug by AMES test; assay type: toxicity, Salmonella enterica subsp. enterica serovar Typhimurium; details: in vivo; dose 2.5 µg
[3] = target: T1, 5-hydroxytryptamine receptor 1A (Homo sapiens) (UniProt P08908); test: Binding affinity to 5-HT1A (unknown origin) at 10^-5 M; details: dose 1.0 10^-5M
T1 sequence (whole entry): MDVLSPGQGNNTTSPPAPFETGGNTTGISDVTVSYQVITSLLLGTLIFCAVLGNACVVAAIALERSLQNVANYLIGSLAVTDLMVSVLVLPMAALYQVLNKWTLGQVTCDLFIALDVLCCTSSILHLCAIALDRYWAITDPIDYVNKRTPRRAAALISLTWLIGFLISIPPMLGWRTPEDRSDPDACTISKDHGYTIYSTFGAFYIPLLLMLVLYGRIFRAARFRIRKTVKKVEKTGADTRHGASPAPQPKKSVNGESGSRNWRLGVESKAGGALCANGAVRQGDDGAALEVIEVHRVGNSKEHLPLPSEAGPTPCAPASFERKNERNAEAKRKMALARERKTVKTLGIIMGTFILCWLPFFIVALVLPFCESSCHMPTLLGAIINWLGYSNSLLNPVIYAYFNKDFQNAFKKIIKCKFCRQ

Clostridioides difficile = test: Antimicrobial activity against clinical strain Clostridium difficile assessed as reduction in bacterial growth at 0.195 to 100 ug/ml by disk diffusion method; assay type: organism-based; details: in vivo, dose 0.195-100 µg/ml
Escherichia coli [4] = test: Antimicrobial activity against Escherichia coli ATCC 25922 assessed as reduction in bacterial growth at 0.195 to 100 ug/ml by serial dilution method; assay type: organism-based; details: in vivo, dose 0.195-100 µg/ml
[5] = Antimicrobial activity against clinical strain Bifidobacterium assessed as reduction in bacterial growth at 0.195 to 100 ug/ml by disk diffusion method; details: dose 0.195-100 µg/ml
Salmonella enterica = test: Antimicrobial activity against Salmonella enterica ATCC 51957 assessed as reduction in bacterial growth at 0.195 to 100 ug/ml by serial dilution method; assay type: organism-based; details: in vivo, dose 0.195-100 µg/ml
Hoylesella loescheii = test: Antimicrobial activity against Prevotella loescheii ATCC 15930 assessed as reduction in bacterial growth at 0.195 to 100 ug/ml by disk diffusion method; assay type: organism-based, DSM 19665 = JCM 12249 = ATCC 15930; details: in vivo, dose 0.195-100 µg/ml
[6] = Toxicity in ip dosed mouse assessed as motor impairment by rotarod test; assay type: organism-based; details: in vivo
Enterococcus faecalis = test: Antimicrobial activity against Enterococcus faecalis ATCC 29212 assessed as reduction in bacterial growth at 0.195 to 100 ug/ml by serial dilution method; assay type: organism-based; details: in vivo, dose 0.195-100 µg/ml
Bacteroides fragilis = test: Antimicrobial activity against Bacteroides fragilis ATCC 25285 assessed as reduction in bacterial growth at 0.195 to 100 ug/ml by disk diffusion method; assay type: organism-based; details: in vivo, dose 0.195-100 µg/ml
Staphylococcus aureus [7] = test: Antimicrobial activity against clinical strain Staphylococcus aureus assessed as reduction in bacterial growth at 0.195 to 100 ug/ml by serial dilution method; assay type: organism-based; details: in vivo, dose 0.195-100 µg/ml
[8] = Protection index, ratio of TD50 for toxicity in ip dosed mouse to ED50 for anticonvulsant activity in ip dosed mouse; assay type: organism-based; details: in vivo, read-out: PI
[9] = Toxicity in mouse assessed as lethality at 70 mg/kg, ip; assay type: organism-based; details: in vivo
Mus musculus [10] = test: Anticonvulsant activity in ip dosed mouse assessed as protection against current-induced seizure by maximal electroshock seizure test; assay type: functional
Staphylococcus aureus [11] = test: Antimicrobial activity against Staphylococcus aureus ATCC 25923 assessed as reduction in bacterial growth at 0.195 to 100 ug/ml by serial dilution method; assay type: organism-based; details: in vivo, dose 0.195-100 µg/ml
[12] = Toxicity in mouse assessed as lethality at 50 mg/kg, ip; assay type: organism-based; details: in vivo
Escherichia coli [13] = test: Antimicrobial activity against Escherichia coli ATCC 35218 assessed as reduction in bacterial growth at 0.195 to 100 ug/ml by serial dilution method; assay type: organism-based; details: in vivo, dose 0.195-100 µg/ml
Mus musculus [14] = organism: Mus musculus; test: animal or person; details: Swiss, ip
Description: Anticonvulsant activity in ip dosed Swiss mouse assessed as protection against current-induced seizure by maximal electroshock seizure test

Mus musculus [15] = test: Anticonvulsant activity in ip dosed albino mouse assessed as protection against 50 mA current-induced seizure by maximal electroshock seizure test; assay type: functional

Nc1ccc([N+](=O)[O-])cc1N
Activity [1]: 519 | Activity_index [2]: 62.3

Cc1ccc(OCCCCN[C@H](C)CO)c(C)c1
Activity [3]: inactive | Activity (Clostridioides difficile): Non-Toxic | Activity (Escherichia coli [4]): Non-Toxic | Activity [5]: Non-Toxic | Activity (Salmonella enterica): Non-Toxic | Activity (Hoylesella loescheii): Non-Toxic | TD50 [6]: 136 mg/kg | Activity (Enterococcus faecalis): Non-Toxic | Activity (Bacteroides fragilis): Non-Toxic | Activity (Staphylococcus aureus [7]): Non-Toxic | selectivity ratio [8]: 2.59 | Activity [9]: Non-Toxic | ED50 (Mus musculus [10]): 52.5 mg/kg | Activity (Staphylococcus aureus [11]): Non-Toxic | Activity [12]: Non-Toxic | Activity (Escherichia coli [13]): Non-Toxic

Cc1cccc(C)c1OCC(C)N (racemic) [MEXILETINE]
ED50 (Mus musculus [14]): 11.9 mg/kg | ED50 (Mus musculus [15]): 1.2 mg/kg
